Data: patent EP3586875A1, “STABILIZATION OF POLYSORBATE” (Lonza Limited, priority 2018, dated 2020)

Legend:
Assay type in all cases: physicochemical
[1] = LC-UV-MS quantification of free fatty acids in polysorbate solutions after storage
Method: (§1) Studies were performed to investigate oxidative degradation of PS20 and PS80 in aqueous solutions containing the antioxidants BHT or BHA. The following solutions were tested: • 1) polysorbate solutions of 10% (w/v) ± 0.02% (w/v) of the respective antioxidant, • 2) polysorbate solutions of 0.1% (w/v) ± 0.0002% (w/v) of the respective antioxidant. For solution 1), stabilized (containing the antioxidant BHT or BHA at a concentration of 0.2% (w/w)) and unstabilized (not containing any antioxidant) neat PS was diluted to a concentration of 10% (w/v) by adding 5 g of PS into a 50 mL volumetric flask and filling up to the 50 mL mark with H2O. The solution was stirred with a magnetic stirrer for about 20 minutes to ensure complete dissolution of PS. 5 ml of each solution was aliquoted into 6R vials. Each vial was closed with a stopper and a cap.
(§2) Throughout the experiments, the solutions were subjected to three different conditions as follows: "T0": stored at -20°C for 7 weeks, "H2O2": stored at 25°C and 60% humidity for 7 weeks in the presence of hydrogen peroxide (H2O2) at a concentration of 10% (w/w) based on the molar ratio of used antioxidant. "Air": stored at 40°C and 75% humidity for 7 weeks and exposed to air (needle in vial stopper for free air exchange during incubation).
LC-UV-MS was used to quantify FFA levels in solutions of 10% PS (w/v) ± 0.02% (w/v) of the antioxidants BHT or BHA. The FFAs lauric acid, myristic acid and palmitic acid were quantified for PS20-containing solutions and palmitic acid, stearic acid and oleic acid were quantified for PS80-containing solutions. The RL for all FFAs was 50000 ppb.
LC-UV-MS conditions were applied as in Example 2. Quantification of the FFAs was achieved by integration of the LC-MS signals at their corresponding ion trace (lauric acid = m/z 199.3; myristic acid = m/z 227.3; palmitic acid = m/z 255.3; stearic acid = m/z 283.3; oleic acid = m/z 281.3) in negative mode and using a calibration curve obtained from the integrated LC-MS signals of each corresponding ion trace of the external reference of lauric acid, myrisitic acid, palmitic acid, stearic acid and oleic acid. FFA reference standards in aqueous solutions at concentrations from 0.5 ppm to 5 ppm were prepared. All reference standard solutions were directly analyzed by LC-UV-MS.

[2] = LC-UV-MS quantification of 4HNE in PS80 solutions after storage; conditions: 10% PS80; Air; 100-fold diluted; RL 50 micro M
Method: as §1, with “cap. […]” for “cap.”
LC-UV-MS was used to quantify 4HNE levels in solutions of 10% PS80 (w/v) ± 0.02% (w/v) of the antioxidants BHT or BHA. […]
Quantification of 4HNE was achieved by integration of the LC-UV signals (lambda = 220 nm) and using a calibration curve obtained from the integrated LC-UV signals (lambda = 220 nm) of the external reference 4HNE. As a reference standard aqueous 4HNE solutions with concentrations between 0.05 ppm and 1 ppm were prepared and directly analyzed by LC-UV-MS. […]

[3] = HS-GC-MS quantification of headspace hexanal in PS80 solutions after storage; conditions: 10% PS80, RL of 100 ppb
Method: as §1, §2
GC-MS was used to quantify headspace hexanal levels for solutions of 10% PS (w/v) ± 0.02% (w/v) of the antioxidants BHT or BHA.
The following HS-GC-MS conditions were applied: Headspace oven: 10 min at 80°C, Column: Agilent HP-5MS, 30 m x 250 micro M x 0.25 micro M; GC oven: 3 min at 35°C, then 20°C/min to 320°C, then 10 min at 320°C; column flow: 1.3 mL/min; MS: Full scan, m/z = 35 - 300. As a reference standard aqueous toluene solutions with concentrations between 0.1 ppm and 1 ppm in 10 mL H2O were prepared and directly analyzed by HS-GC-MS.
1 mL of each sample was transferred into a headspace vial with a volume of 20 mL, closed, and analyzed directly.
Quantification was achieved by integration of the HS-GC-MS signals (TIC) and using a calibration curve obtained from the integrated HS-GC-MS signals (TIC) of the external reference toluene.
Tentative identification of degradants was performed by comparing the mass spectrum of each GC-MS signal against the NIST14 standard reference database.
The degradant most consistently identified by HS-GC-MS to show a value above the RL of 100 ppb was hexanal.

[4] = HPLC-FMA (fluorescence micelle assay), polysorbate concentration after storage; conditions: diluted to target 0.04% PS (w/v)
Method: as §1
For solution 2), 50 micro L of the 10% (w/v) PS solutions were transferred into 6R vials and filled up with 4.95 mL H2O to a final concentration of 0.1% (w/v) PS.
as §2
HPLC FMA was used to measure the concentration of polysorbate in solutions of 10% PS20 ± 0.02% (w/v) of the antioxidants BHT or BHA, solutions of 10% PS80 (w/v) ± 0.02% (w/v) of the antioxidants BHT or BHA, and solutions of 0.1% PS80 (w/v) ± 0.0002% (w/v) of the antioxidants BHT or BHA. Samples were diluted to the target concentration of 0.04% PS (w/v) prior to analysis.
The following HPLC fluorescence detector conditions were applied: Column: knitted reaction coil L x I.D. 20mx 0.25mm, volume 1.0mL SUPELCO, ambient temperature; injection volume: 10 micro L; flow: 1.5 mL/min; isocratic 2min (A: 0.15M sodium chloride, 0.05 M L-histidine, pH = 6, 5%(v/v) acetonitrile, 5 micro M N-phenyl-1-naphtylamine (NPN), 15 ppm Brij® 35); FLD: lambda excitation = 350 nm, lambda emission = 420 nm, data mode: emission.
Quantification of each sample type was performed by using 10% T0 samples for preparation of an external calibration curve from 0.02% to 0.06% PS.
Empower 2 was used as software for quantification.
The assay is based on the uptake of the fluorescent dye NPN by surfactant micelles using flow injection analysis and subsequent fluorescence detection. The dye is present in the mobile phase. In the lipophilic surrounding in the inside of the micelles the fluorescent signal is 10-fold higher than in aqueous mobile phase. Therefore, the concentration of polysorbate can be measured according to the formation of micelles and the uptake of the dye by the subsequent increase of the signal intensity.

X = calculated fatty acid concentration in ppb, Lauric acid ([1]; 7 weeks, 0.02 % (w/v))	X = calculated fatty acid concentration in ppb, Myristic acid ([1]; 7 weeks, 0.02 % (w/v))	X = calculated fatty acid concentration in ppb, Oleic acid ([1]; 7 weeks, 0.02 % (w/v))	X = calculated fatty acid concentration in ppb, Stearic acid ([1]; 7 weeks, 0.02 % (w/v))	SMILES	X = calculated fatty acid concentration in ppb, Lauric acid ([1]; PS20 - 10%, Air, RL 50000ppb)	X = calculated fatty acid concentration in ppb, Myristic acid ([1]; PS20 - 10%, Air, RL 50000ppb)	X = calculated fatty acid concentration in ppb, Oleic acid ([1]; PS80 - 10%, Air, RL 50000ppb)	X = calculated fatty acid concentration in ppb, Stearic acid ([1]; PS80 - 10%, Air, RL 50000ppb)	4HNE measured [2]	hexanal (headspace) ([3]; Air)	hexanal (headspace) ([3]; H2O2)	hexanal (headspace) ([3]; T0)	X= calculated concentration in % of the average of 2 injections (polysorbate) ([4]; PS20 - 10%, Air)	X= calculated concentration in % of the average of 2 injections (polysorbate) ([4]; PS80 - 0.1%, H2O2, RL 0.02%)	X= calculated concentration in % of the average of 2 injections (polysorbate) ([4]; PS80 - 10%, Air, RL 0.02%)
–	–	–	–	COc1ccc(O)c(C(C)(C)C)c1 [BHA, butylated hydroxyanisole]	below 200000 ppb	around 50000 ppb	around 200000 ppb	around 60000 ppb	< 50 micro M	no hexanal could be detected	no hexanal could be detected	no hexanal could be detected	~0.04%	~0.04%	~0.04%
below 200000 ppb	around 50000 ppb	around 100000 ppb	around 60000 ppb	Cc1cc(C(C)(C)C)c(O)c(C(C)(C)C)c1 [BHT, butylated hydroxytoluene]	–	–	–	–	< 50 micro M	no hexanal could be detected	no hexanal could be detected	no hexanal could be detected	~0.04%	~0.04%	~0.04%
